Data taken from US20200376003A1, “PHARMACEUTICAL COMPOSITION FOR PREVENTING OR TREATING CHOLESTEROL GALLSTONE COMPRISING URSODEOXYCHOLIC ACID (UDCA) AND OMEGA-3 FATTY ACID, AND PROCESS FOR PRODUCING THE SAME” (INDUSTRY-ACADEMIC COOPERATION FOUNDATION, YONSEI UNIVERSITY, priority 2019, published 2020).
“Also recorded” adds a separate entry of the source.

Test system: mice with gallstones formed due to a high-cholesterol diet
Test: Treatment of cholesterol gallstones in mice with gallstones formed by a high-cholesterol (lithogenic) diet, 12 weeks of drug administration
Format: in vivo, C57BL/6J male mice
Procedure: An overall schematic diagram of the animal experiment is as illustrated in FIG. 1. This will be described below in more detail. C57BL/6J male mice were purchased from Central Lab. Animal Inc. The mice were allowed to have a 4-week compliance period under a condition of controlled light (a cycle of 12-hour light and 12-hour darkness in which darkness is from 6:30 pm to 6:30 am), temperature (22±4° C.), and humidity (50%±20%). The mice had ad libitum access to water (autoclaved distilled water) and were fed commercial feed (Scientific Animal Food & Engineering/+40RMM) containing 2.9% fat, 15.2% protein, and 60.7% carbohydrate. In addition, a lithogenic diet (DYET #102136; Dyets, Inc., Bethlehem, Pa., USA) containing cholesterol (10 g/kg) and cholic acid (5 g/kg) was given for 8 weeks, so that mice with gallstones formed due to a high-cholesterol diet were created.
The mice with gallstones formed due to a high-cholesterol diet were divided into the following groups and experiments were conducted for 12 weeks:
Each of the mice of the control group (1) was administered, using a sonde, 0.3 ml of a mixture of 0.75% Tween 80 and distilled water. The mice of the groups (2) to (4) were administered, using a sonde, a product obtained by diluting 12.5 mg/kg/day of UDCA and 51 mg/kg/day of omega-3 fatty acid in 0.75% Tween 80. […]
After 12 weeks of drug administration, animals were sacrificed and gallbladder tissue was obtained. […] After the high-cholesterol diet, body weight and liver weight were measured; and after the normal diet and therapeutic agent administration, body weight and liver weight were measured (FIG. 2). […]
The size of gall stones in the gallbladder tissue obtained in Example 1 was analyzed on the basis of FIG. 4 (FIGS. 5 and 6). […]
Changes in the weight of liver gallstones after the high-cholesterol diet (base) and after the therapeutic agent administration were analyzed (FIGS. 7 and 8).

[1] = Example 2, anatomical changes before and after 12 weeks of drug administration, normal diet

## C[C@H](CCC(=O)O)[C@H]1CC[C@H]2[C@@H]3[C@@H](O)C[C@@H]4C[C@H](O)CC[C@]4(C)[C@H]3CC[C@]12C [UDCA, 3α,7β-dihydroxy-5β-cholanoic acid]
[1]
  amount of gallstones after administration (FIG. 3): insignificantly decreased
  size of gallstones after administration (FIG. 3): slightly decreased; also recorded: insignificant changes
Example 3, after high-cholesterol diet vs after therapeutic agent administration
  size of gallstones, analysed on the classification chart of FIG. 4 (FIGS. 5 and 6): no change in size
